Reference: patent publication US20230039858A1, “COMPOSITIONS AND METHODS RELATED TO MOLECULAR CONJUGATION” (IntoCell, Inc., priority 2019, published 2023)

Tests used:
[1] = Relative reaction rate with N-Ac-cysteine (LC/MS); type: physicochemical; conditions: with N-acetyl-L-cysteine in PBS buffer/DMSO, 1 hour, room temperature; relative to Reference A = 1
Experimental: To a homogeneous solutions of ‘reference A’, PyrMPS-1, and mMPS-4 (10 stock solution 10 mmol) in PBS buffer (870 μL) and DMSO (90 μL) was added N-acetyl-L-cysteine (10 stock solution 10 mmol) and stirred for 1 hour at room temperature. The resulting samples were checked for reaction rate using LC/MS.

[2] = Plasma stability in mouse plasma, HPLC; type: in vitro ADME; conditions: 300 μM, 37° C., up to 7 days
Experimental: (§1) Compound N-Ac-Cys-AMA-10 and methyl phenyl sulfone (used as a standard material) were dissolved in DMSO to make a concentration of 30 mM. Then, each of human plasma (Biochemed 752PR—SC-PMG) and mouse plasma (Biochemed 029-APSC-MP) were mixed with the N-Ac-Cys-AMA-10 and MPS to make a final concentration of N-Ac-Cys-AMA-10 and methyl phenyl sulfone 300 μM. The resulting plasma mixtures were incubated in a water bath at 37° C. Aliquots were taken before the reaction and on 1 day, 2 days, 4 days, and 7 days after the reaction, wherein each aliquot was 200 μL. To complete the reaction, a two-fold volume of acetonitrile was added, followed by brief vortexing, and centrifugation for plasma protein precipitation. Each supernatant obtained after centrifugation was collected and analyzed by HPLC.

[3] = Plasma stability in human plasma, HPLC; type: in vitro ADME; conditions: 300 μM, 37° C., up to 7 days
Experimental: as §1

SMILES | Relative reaction rate [1] | stability in mouse plasma [2] | stability in human plasma [3]
Cc1ccc(S(=O)(=O)CCC(=O)c2cncc(C(=O)NCCOCCOCCOCCOCCOCCN=[N+]=[N-])c2)cc1 [pyrMSP-1] | Increase 11.5 folds | – | –
COC(=O)c1cc(C(=O)CCS(=O)(=O)c2ccc(C)cc2)cc(C(=O)NCCOCCOCCOCCOCCOCCN=[N+]=[N-])c1 [mMPS-4] | Increase 7 folds | – | –
Cc1ccc(S(=O)(=O)CCC(=O)c2ccc(C(=O)NCCOCCOCCOCCOCCOCCN=[N+]=[N-])cc2)cc1 [Reference A, reference compound] | 1 folds | – | –
C#CCOCCOCCOCCNC(=O)c1cc(C(=O)CC(SC[C@H](NC(C)=O)C(=O)O)C(N)=O)cc(C(=O)NCCOCCOCCOCC#C)c1 (some centres unmarked) [N-Ac-Cys-AMA-10] | – | high stability | high stability
